This is an account of results in patent US4849421A, “Anti-anxiety benzothiepino(5,4-c]pyridazines” (Yoshitomi Pharmaceutical Industries, Ltd., priority 1987, dated 1989).

SMILES strings stand for the structures.

The target of one data set is benzodiazepine receptor. Briefly: Displacement ability for benzodiazepine receptor ([3H]diazepam binding). The note with it: tritiated diazepam 2 nM, 0° C., 20 minutes, pH 7.4, rat cerebral cortex. On the set-up: species or system Wistar rats (cerebral cortex, crude synaptosomal fraction). As to the method:
Compound J: 8-chloro-2-(4-chlorophenyl)-5,6-dihydro-[1]benzothiepino[5,4-c]pyridazin-3(2H)-one 7-oxide Experiment 1: Displacement ability for benzodiazepine receptor:
Experiment on the specific binding for benzodiazepine receptor was performed according to the method described in Life Science, vol. 20, p. 2101 (1977).
A crude synaptosomal fraction was isolated from the cerebral cortex of 9 to 10 week-old male Wistar rats and suspended in 50 mM of Tris-hydrochloric acid buffer solution (pH 7.4) containing 120 mM of sodium chloride and 5 mM of potassium chloride.
To the synaptosomal suspension as prepared above were added various concentrations of test compounds and tritiated diazepam (final concentration: 2 nM), and the mixture was incubated at 0° C. for 20 minutes. Then the suspension was filtered through Whatman GF/B glass fiber filter. After the filter was washed with the foregoing buffer solution, the radioactivity left on the filter was measured by a liquid scintillation spectrometry.
Specific binding was determined by subtracting binding in the presence of 10^-6 M unlabelled diazepam from total binding.
The affinity of the test compounds of the present invention for benzodiazepine receptor is evaluated as an ability to displace tritiated diazepam from the binding site, and is represented as Ki value.

Data set [1] has as its system bicuculline-induced tonic convulsion. The data set can be described thus: Anti-bicuculline effect. The data set is classed as in vivo, male ddY-strain mice. As to conditions: Mus musculus, po; mice, p.o. 1 hour before (+)bicuculline 0.6 mg/kg i.v.; tonic convulsion within 5 minutes. As to the method:
Experiment 2: Anti-bicuculline effect:
The experiment of anti-bicuculline effect was performed according to the method described in Life Science, vol. 21, p. 1779 (1977).
Groups of 7-14 male ddY-strain mice weighing 20-28 g were used. (+)Bicuculline (0.6 mg/kg) was intraveneously administered 1 hour after the oral administration of test compound, and the ED50, 50% effective dose, was determined by observing the existence of tonic convulsion within 5 minutes.

Data set [2] deals with number of shock in the punished period. Briefly: Anti-anxiety effect (anti-conflict test, Skinner-box). The data set is classed as in vivo, male rats. The note with it: Rattus norvegicus; rats, oral; significant increment of number of shock in the punished period; read-out: Anti-anxiety effect MED. As to the method: Experiment 3: Anti-anxiety effect:
The experiment was carried out by using groups of 8 male rats which were maintained at approximately 80% of their free food weights by reducing food and employing a Skinner-box equipped with lever on the side and a grid on the floor.
The rats were placed in the Skinner-box and trained to press a lever in order to obtain milk. According to this training, the rats could obtain 0.1 ml of milk once by pressing the lever twenty times (Fix-ratio 20 reinforcement schedule, FR20).
After the rats was trained to obtain milk for 10 minutes according to FR20 (this period was hereinafter referred to as unpunished period), loud noise was given to the rats for 5 minutes (this period was hereinafter referred to as punished period). In this punished period, the rats could obtain milk everytime when they pushed the lever once, and also received a foot shock (AC 100V, 0.4-0.8 mA) for 0.3 second through the grid.
According to the repeated training of the unpunished period and the punished period, the animals which continuously pushed the lever in the unpunished period and rarely pushed, it in the punished period, and had the number of shock below 10 were provided to the experiment.
After the rats were orally administered with a test compound in 0.5% methylcellulose, the unpunished period (10 minutes) and the punished period (5 minutes) were alternately performed four times to the rats. The number of push of the lever in the unpunished period in 40 minutes and the number of shock in the punished period in 20 minutes were measured, and minimum effective dose (MED, mg/kg) was determined as the dose which observable the significant increment of number of shock in the punished period with being compared to the control group.

The test system of another data set is muscle-relaxant effect. The data set can be described thus: Muscle-relaxant effect (rotating rod). The data set is classed as in vivo, male mice. As to conditions: Mus musculus; mice, oral, 1 hour; rotating rod 11 rpm, drop within 1 minute. As to the method:
Experiment 4: Muscle-relaxant effect:
Groups of 10 male mice each were administered orally with test compounds and an hour later placed on the rotating rod (2.8 cm in diameter) turning at a speed of 11 rpm. The ED50 (mg/kg) was calculated by the probit method as the dose which caused to drop the half number of mice from the rod within 1 minute.

Data set [3] concerns righting reflex. Briefly: Potentiation of narcotic effect (hexobarbital). The class given is in vivo, male mice. As to conditions: mice, oral, 1 hour before hexobarbital 40 mg/kg i.p.; loss of righting reflex. How it is done: Experiment 5: Potentiation of narcotic effect:
Groups of 14 male mice, which were set in a room kept at 26° C., were administered orally with test compound and an hour later administered intraperitoneally with 40 mg/kg of hexobarbital. The righting reflex was tested at 15 and 30 minutes after hexobarbital treatment. The ED50 (mg/kg) was calculated by the probit method as the dose which caused loss of righting reflex for more than 3 seconds in half the mice.

The test system of data set [4] is righting reflex. The data set can be described thus: Potentiation of alcoholic effect (ethanol). The note with it: mice, oral, 1 hour before 30% ethanol 0.1 ml/10 g i.p.; loss of righting reflex. The class given is in vivo, male mice. As to the method: Experiment 6: Potentiation of alcoholic effect:
Groups of 14 male mice, which were set in a room kept at 26° C., were administered orally with test compound and an hour later administered intraperitoneally with 0.1 ml/10 g of 30% ethanol. The righting reflex was tested at 15 and 30 minutes after ethanol treatment. The ED50 (mg/kg) was calculated by the probit method as the dose which caused loss of righting reflex for more than 3 seconds in half the mice.

A word on the Ki: it is a dissociation constant, usually derived from enzyme kinetics or from competition with a known ligand. One may read the ED50 as the midpoint of the dose-response relation. Low readings indicate an effect at a small dose, high ones a need for a large dose. In the case of `O=c1cc2c(nn1-c1ccc(Cl)cc1)-c1cc(F)ccc1[S+]([O-])CC2` (centres unmarked) [Compound F, 2-(4-chlorophenyl)-10-fluoro-5,6-dihydro-[1]benzothiepino[5,4-c]pyridazin-3(2H)-one 7-oxide], the affinity on benzodiazepine receptor corresponds to a Ki of 0.036 µM. In addition, the ED50 in data set [1] is 0.72 mg/kg; in the data set with muscle-relaxant effect, 107 mg/kg. Also, the minimal effective dose in data set [2] was under 5 mg/kg. In the data set on righting reflex [3], the “Potentiation of narcotic effect ED50” value was found to be 110 mg/kg. Besides, in the data set on righting reflex [4], the “Potentiation of alcoholic effect ED50” value is 117 mg/kg.
`O=c1cc2c(nn1-c1ccc(F)cc1)-c1cc(F)ccc1SCC2` [Compound I, 10-fluoro-2-(4-fluorophenyl)-5,6-dihydro-[1]benzothiepino[5,4-c]pyridazin-3(2H)-one]: affinity at benzodiazepine receptor was put at a Ki of 0.043 µM. Further, the ED50 in data set [1] was 6 mg/kg.
`O=c1cc2c(nn1-c1ccc(Cl)cc1)-c1ccccc1SCC2` [Compound A, 2-(4-chlorophenyl)-5,6-dihydro-[1]benzothiepino[5,4-c]pyridazin-3(2H)-one] gave a Ki on benzodiazepine receptor of 0.01 µM. Further, it took a dose of 5.5 mg/kg to reach the 50% effect level in data set [1] (ED50).
On the same counts, the results for `O=c1cc2c(nn1-c1ccc(Cl)cc1)-c1cc(F)ccc1SCC2` [Compound E, 2-(4-chlorophenyl)-10-fluoro-5,6-dihydro[1]benzothiepino[5,4-c]pyridazin-3(2H)-one] are 0.014 µM and 2.2 mg/kg.
`O=c1cc2c(nn1-c1ccc(Cl)cc1)-c1cc(Cl)ccc1[S+]([O-])CC2` (centres unmarked) [Compound B, 10-chloro-2-(4-chlorophenyl)-5,6-dihydro-[1]benzothiepino[5,4-c]pyridazin-3(2H)-one 7-oxide]: on benzodiazepine receptor, the Ki was determined as 0.011 µM. In addition, in data set [1], the ED50 worked out at 3.2 mg/kg.
At benzodiazepine receptor, `O=c1cc2c(nn1-c1ccc(Cl)cc1)-c1cccc(Cl)c1[S+]([O-])CC2` (centres unmarked) [Compound J, 8-chloro-2-(4-chlorophenyl)-5,6-dihydro-[1]benzothiepino[5,4-c]pyridazin-3(2H)-one 7-oxide] registered a Ki of 0.011 µM. Besides, the ED50 is 0.67 mg/kg in data set [1] and over 500 mg/kg in the data set with muscle-relaxant effect. Also, the minimal effective dose in data set [2] was under 5 mg/kg. Further, in the data set with righting reflex [3], the “Potentiation of narcotic effect ED50” value is given as over 200 mg/kg. Moreover, the “Potentiation of alcoholic effect ED50” value in the data set with righting reflex [4] was over 500 mg/kg.
`O=C1CC2CC[S+]([O-])c3ccccc3C2=NN1c1ccc(Cl)cc1` (centres unmarked) [Compound D, 2-(4-chlorophenyl)-4,4a,5,6-tetrahydro-[1]benzothiepino[5,4-c]pyridazin-3(2H)-one 7-oxide] had a Ki on benzodiazepine receptor of 0.045 µM. This molecule registered an ED50 in data set [1] of 4.5 mg/kg.
On benzodiazepine receptor, `O=C1CC2CC[S+]([O-])c3ccccc3C2=NN1c1ccc(Br)cc1` (centres unmarked) [Compound H, 2-(4-bromophenyl)-4,4a,5,6-tetrahydro-[1]benzothiepino[5,4-c]pyridazin-3(2H)-one 7-oxide] displayed a Ki of 0.044 µM. In addition, in data set [1], it took a dose of 4.5 mg/kg to reach the 50% effect level (ED50).
Regarding `O=c1cc2c(nn1-c1ccc(Cl)cc1)-c1ccccc1[S+]([O-])CC2` (centres unmarked) [Compound C, 2-(4-chlorophenyl)-5,6-dihydro-[1]benzothiepino[5,4-c]pyridazin-3(2H)-one 7-oxide], at benzodiazepine receptor, the Ki turned out to be 0.037 µM. Besides, the ED50 in data set [1] came out at 1.2 mg/kg; in the data set on muscle-relaxant effect, 103 mg/kg. Also, the minimal effective dose in data set [2] is 2.5 mg/kg. Moreover, the “Potentiation of narcotic effect ED50” value in the data set on righting reflex [3] was determined as 113 mg/kg. Moreover, the “Potentiation of alcoholic effect ED50” value in the data set with righting reflex [4] amounted to 44 mg/kg.
The molecule `O=c1cc2c(nn1-c1ccc(Br)cc1)-c1ccccc1[S+]([O-])CC2` (centres unmarked) [Compound G, 2-(4-bromophenyl)-5,6-dihydro-[1]benzothiepino[5,4-c]pyridazin-3(2H)-one 7-oxide] gave a Ki on benzodiazepine receptor of 0.034 µM. Also, in data set [1], the ED50 was found to be 5.9 mg/kg.
